Test results as given in the NIST ThermoML archive (doi:10.1016/j.jct.2011.05.003).

Test: xn = mol fraction of the nth substance listed
Conditions: Liquid; for speed of sound: 101 kPa, Sing-around technique in a fixed-path interferometer; for mass density: 101.3 kPa, Vibrating tube method

CCCCNCCCC [dibutylamine] + CCCCCC(C)=O
Conditions	mass density [kg/m3]	speed of sound [m/s]
293.15 K, x2 = 0.064	762.405	1261.7
293.15 K, x2 = 0.1633	767.21	1263
293.15 K, x2 = 0.2061	769.239	1263.4
293.15 K, x2 = 0.2606	772.046	1264.5
293.15 K, x2 = 0.4493	781.952	1267.8
293.15 K, x2 = 0.5094	785.255	1269.1
293.15 K, x2 = 0.644	792.949	1272.1
293.15 K, x2 = 0.7511	799.387	1274.7
293.15 K, x2 = 0.9018	808.899	1278.8
298.15 K, x2 = 0.0624	758.343	1241.7
298.15 K, x2 = 0.1107	760.603	1242.2
298.15 K, x2 = 0.2097	765.511	1243.8
298.15 K, x2 = 0.3613	773.119	1246.3
298.15 K, x2 = 0.4049	775.426	1247.1
298.15 K, x2 = 0.4499	777.849	1248
298.15 K, x2 = 0.5496	783.354	1250.2
298.15 K, x2 = 0.6482	789.026	1252.5
298.15 K, x2 = 0.7509	795.166	1255.1
298.15 K, x2 = 0.7987	798.112	1256.4
298.15 K, x2 = 0.8986	804.449	1259.3
298.15 K, x2 = 0.9488	807.773	1261
303.15 K, x2 = 0.1122	756.507	1223.3
303.15 K, x2 = 0.1605	758.79	1223.9
303.15 K, x2 = 0.2587	763.614	1225.3
303.15 K, x2 = 0.3597	768.787	1227.2
303.15 K, x2 = 0.4096	771.421	1228.2
303.15 K, x2 = 0.4986	776.259	1230.1
303.15 K, x2 = 0.6478	784.736	1233.7
303.15 K, x2 = 0.747	790.673	1236.3
303.15 K, x2 = 0.7997	793.928	1237.9
303.15 K, x2 = 0.852	797.226	1239.4
303.15 K, x2 = 0.8984	800.193	1240.8

CCCNCCC [dipropylamine] + CCCCCC(C)=O
Conditions	mass density [kg/m3]	speed of sound [m/s]
293.15 K, x2 = 0.0603	743.175	1213.9
293.15 K, x2 = 0.1045	746.717	1217.2
293.15 K, x2 = 0.1559	750.817	1221
293.15 K, x2 = 0.2013	754.413	1224.3
293.15 K, x2 = 0.2526	758.468	1228.1
293.15 K, x2 = 0.2936	761.7	1231.1
293.15 K, x2 = 0.3492	766.042	1235.2
293.15 K, x2 = 0.4579	774.494	1243
293.15 K, x2 = 0.493	777.204	1245.6
293.15 K, x2 = 0.5494	781.554	1249.6
293.15 K, x2 = 0.5894	784.624	1252.6
293.15 K, x2 = 0.6478	789.087	1256.9
293.15 K, x2 = 0.6896	792.266	1259.9
293.15 K, x2 = 0.7615	797.717	1265.1
293.15 K, x2 = 0.8025	800.833	1268
293.15 K, x2 = 0.8139	801.69	1268.8
293.15 K, x2 = 0.8993	808.079	1275
293.15 K, x2 = 0.948	811.684	1278.4
298.15 K, x2 = 0.0521	738.054	1191.8
298.15 K, x2 = 0.1048	742.273	1196
298.15 K, x2 = 0.1557	746.324	1199.8
298.15 K, x2 = 0.2	749.853	1203.2
298.15 K, x2 = 0.2526	754.005	1207.1
298.15 K, x2 = 0.2962	757.449	1210.4
298.15 K, x2 = 0.3436	761.173	1213.9
298.15 K, x2 = 0.385	764.422	1217
298.15 K, x2 = 0.4478	769.307	1221.7
298.15 K, x2 = 0.5427	776.662	1228.8
298.15 K, x2 = 0.6003	781.222	–
298.15 K, x2 = 0.6436	784.41	1236.4
298.15 K, x2 = 0.69	787.95	1239.8
298.15 K, x2 = 0.7418	791.892	1243.6
298.15 K, x2 = 0.8061	796.768	1248.5
298.15 K, x2 = 0.8548	800.432	1252
298.15 K, x2 = 0.8993	803.773	1255.3
298.15 K, x2 = 0.9528	807.724	1259.1
303.15 K, x2 = 0.0578	733.883	1172.1
303.15 K, x2 = 0.1054	737.733	1175.8
303.15 K, x2 = 0.1579	741.943	1179.9
303.15 K, x2 = 0.2005	745.356	1183.2
303.15 K, x2 = 0.2497	749.277	1187.1
303.15 K, x2 = 0.2951	752.865	1190.6
303.15 K, x2 = 0.3476	756.998	1194.7
303.15 K, x2 = 0.3856	759.993	1197.7
303.15 K, x2 = 0.4504	765.062	1202.6
303.15 K, x2 = 0.5442	772.346	1209.8
303.15 K, x2 = 0.5891	775.815	1213.4
303.15 K, x2 = 0.642	779.872	1217.3
303.15 K, x2 = 0.687	783.319	1220.8
303.15 K, x2 = 0.7413	787.465	1225
303.15 K, x2 = 0.7994	791.897	1229.4
303.15 K, x2 = 0.8564	796.191	1233.7
303.15 K, x2 = 0.8993	799.423	1236.9
303.15 K, x2 = 0.9497	803.188	1240

CCCCCC(C)=O [2-heptanone] + CCN(CC)CC
Conditions	mass density [kg/m3]	speed of sound [m/s]
293.15 K, x1 = 0.0636	733.182	1141.8
293.15 K, x1 = 0.1061	737.185	1148.4
293.15 K, x1 = 0.1585	741.934	1156
293.15 K, x1 = 0.2077	746.426	1163.5
293.15 K, x1 = 0.2536	750.6	1170.4
293.15 K, x1 = 0.3091	755.621	1178.7
293.15 K, x1 = 0.3614	760.322	1186.6
293.15 K, x1 = 0.4043	764.18	1193.1
293.15 K, x1 = 0.4621	769.325	1201.9
293.15 K, x1 = 0.5022	772.887	1208
293.15 K, x1 = 0.5577	777.79	1216.3
293.15 K, x1 = 0.6078	782.199	1223.9
293.15 K, x1 = 0.6604	786.734	1231.8
293.15 K, x1 = 0.7001	790.167	1237.8
293.15 K, x1 = 0.749	794.387	1245
293.15 K, x1 = 0.7968	798.46	1252.1
293.15 K, x1 = 0.8517	803.051	1260.2
293.15 K, x1 = 0.9008	807.18	1267.3
293.15 K, x1 = 0.9507	811.366	1274.7
298.15 K, x1 = 0.0574	727.994	1119.4
298.15 K, x1 = 0.105	732.47	1126.8
298.15 K, x1 = 0.1619	737.667	1135.5
298.15 K, x1 = 0.2068	741.77	1142.1
298.15 K, x1 = 0.2598	746.582	1150.2
298.15 K, x1 = 0.3075	750.925	1157.5
298.15 K, x1 = 0.3578	755.443	1165.2
298.15 K, x1 = 0.4081	759.984	1172.9
298.15 K, x1 = 0.4548	764.166	1180.1
298.15 K, x1 = 0.5032	768.476	1187.5
298.15 K, x1 = 0.5545	773.017	1195.4
298.15 K, x1 = 0.6103	777.928	1204
298.15 K, x1 = 0.6579	782.088	1211.3
298.15 K, x1 = 0.6994	785.697	1217.6
298.15 K, x1 = 0.7484	789.941	1225.1
298.15 K, x1 = 0.8031	794.633	1233.3
298.15 K, x1 = 0.8576	799.228	1241.5
298.15 K, x1 = 0.9014	802.909	1247.9
298.15 K, x1 = 0.9462	806.662	1254.6
303.15 K, x1 = 0.0612	723.838	1100.1
303.15 K, x1 = 0.1056	727.95	1106.8
303.15 K, x1 = 0.1602	732.935	1115.1
303.15 K, x1 = 0.2068	737.166	1122.2
303.15 K, x1 = 0.2606	742.09	1130.5
303.15 K, x1 = 0.3086	746.453	1137.9
303.15 K, x1 = 0.3583	750.968	1145.7
303.15 K, x1 = 0.4082	755.492	1153.5
303.15 K, x1 = 0.4553	759.737	1160.8
303.15 K, x1 = 0.5042	764.098	1168.4
303.15 K, x1 = 0.5983	772.43	1183.1
303.15 K, x1 = 0.6536	777.279	1191.6
303.15 K, x1 = 0.7031	781.622	1199.3
303.15 K, x1 = 0.7452	785.267	1205.8
303.15 K, x1 = 0.8088	790.717	1215.5
303.15 K, x1 = 0.8489	794.102	1221.5
303.15 K, x1 = 0.9007	798.491	1229.2
303.15 K, x1 = 0.9503	802.71	1235.8
